Laboratory results taken from patent US8293774B2, “Optically active (R)-aryloxypropionic acid amides and herbicidal composition comprising same” (Kyung Nong Corporation, priority 2007, dated 2012).

Experiments:
[1] = system: SETVIR (Setaria viridis (L.) Beauv, green foxtail); experiment: Weed control test, foliage treatment (Test Example 1, Table 7); type: in vivo
Procedure, shortened: (§1)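 Plants are raised from seed in sandy loam in a greenhouse at 20 to 30° C. When barnyard grass reaches the 3-leaf stage, the foliage receives 2,000 l/ha of a diluted emulsion containing compound, acetone and Tween 80. Damage is judged by eye against untreated controls after 10 and 20 days.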

[2] = system: DIGSA (Digitaria Sanguinalis (L.) SCOP, large crabgrass); experiment: as above; type: in vivo
Procedure, shortened: as §1

[3] = system: PANDI (Panium dichotomiflorum Michx, fall panicum); experiment: as above; type: in vivo
Procedure, shortened: as §1

[4] = system: ZEAMX (Zea mays L., corn); experiment: as above; type: in vivo
Procedure, shortened: as §1

[5] = system: ARTHIS (Arthraxon hispidus (Thunb.) Makino, creek grass); experiment: as above; type: in vivo
Procedure, shortened: as §1

[6] = system: ECHOG (Echinoch crus-galli Beauv. var. caudata Kitagawa, barnyard grass); experiment: as above; type: in vivo; conditions: 3-leaf stage
Procedure, shortened: as §1

[7] = system: SORBI (Andropogon sorghum, common sorgum); experiment: as above; type: in vivo
Procedure, shortened: as §1

Echinochloa oryzicola = experiment: Foliage treatment with emulsions, dry rice field conditions (Test Example 2, Table 9); type: in vivo; conditions: 150 g a.i./ha; emulsion of Formulation Example 3; division stage 1~2; 20 days after foliage treatment
Excerpt: (§2) Seeds of rice (Nampyung rice) and barnyard grasses (Echinochloa oryzicola and Echinochloa crus-galli var. crus-galli) were placed in sandy loam of pots, covered with soil, and grown in the dry rice field conditions.
(§3) Rice (6˜6.5-leaf stage, plant height 33.2 cm) and barnyard grasses (Echinochloa oryzicola: division stage 1˜2, plant height 38.0 cm, Echinochloa crus-galli var. crus-galli: division stage 1˜2, plant height 44.1 cm) were subjected to a foliage treatment with emulsions prepared according to Formulation Example 3 by using compounds of Examples 1, 5 and 13 (purity: 99% or more), wherein the emulsions were sprayed to the plants at a dosage of the active compound of 150 g/ha.
(§4) The herbicidal effect on the barnyard grasses and harmful effect on the rice of the test compounds at 20 days and 30 days after the foliage treatment were visually evaluated as in Test Example 1 in comparison with the untreated control, and the results are shown in Table 9.

[8] = system: Echinochloa crus-galli var. crus-galli; experiment: as above; type: in vivo; conditions: 150 g a.i./ha; emulsion of Formulation Example 3; division stage 1~2; 20 days after foliage treatment
Excerpt: as §2, §3, §4

[9] = system: TRZAW (Tritium aestivum L., wheat); experiment: Weed control test, foliage treatment (Test Example 1, Table 7)
[10] = system: ORYSA (Oryza sativa cv. Dongjin, rice); experiment: as above
[11] = system: GLXMA (Glycine max(L.) MERR, soy bean); experiment: as above
[12] = system: HORVU (Hordeum vulgare L., barley); experiment: as above
Barnyard grass = experiment: Weed control test, 4-leaf stage plants (Test Example 1, Table 8); type: in vivo, Echinoch crus-galli Beauv. var. caudata Kitagawa
rice (Nampyung rice) = experiment: Foliage treatment with emulsions, dry rice field conditions, harmful effect on rice (Test Example 2, Table 9); type: in vivo; conditions: 6~6.5-leaf stage, 150 g a.i./ha, emulsion; for Harmful effect, 20 days: 20 days after foliage treatment; for Harmful effect, 30 days: 30 days after foliage treatment
Excerpt: as §2

Rice = experiment: Weed control test, 4-leaf stage plants (Test Example 1, Table 8)

C[C@@H](Oc1ccc(Oc2nc3ccc(Cl)cc3o2)cc1)C(=O)Nc1nc2cc(Cl)ccc2o1 [Example 1, (R)-2-[4-(6-chloro-2-benzoxazolyloxy)phenoxy]propionic acid-N-(5-chloro-2-benzoxazolyl)amide]
pest or weed control at 25 g/ha ([1]; Setaria viridis, foliar, 0.025 kg/ha, read-out: Plant damage (herbicidal activity), visually evaluated, SETVIR): 70% | pest or weed control at 100 g/ha ([1]; Setaria viridis, foliar, 0.1 kg/ha, read-out: Plant damage (herbicidal activity), visually evaluated, SETVIR): 100% | pest or weed control at 200 g/ha ([1]; Setaria viridis, foliar, 0.2 kg/ha, read-out: Plant damage (herbicidal activity), visually evaluated, SETVIR): 100% | pest or weed control at 25 g/ha ([2]; Digitaria sanguinalis, foliar, 0.025 kg/ha, read-out: Plant damage (herbicidal activity), visually evaluated, DIGSA): 90% | pest or weed control at 100 g/ha ([2]; Digitaria sanguinalis, foliar, 0.1 kg/ha, read-out: Plant damage (herbicidal activity), visually evaluated, DIGSA): 100% | pest or weed control at 200 g/ha ([2]; Digitaria sanguinalis, foliar, 0.2 kg/ha, read-out: Plant damage (herbicidal activity), visually evaluated, DIGSA): 100% | pest or weed control at 25 g/ha ([3]; Panicum dichotomiflorum, foliar, 0.025 kg/ha, read-out: Plant damage (herbicidal activity), visually evaluated, PANDI): 90% | pest or weed control at 100 g/ha ([3]; Panicum dichotomiflorum, foliar, 0.1 kg/ha, read-out: Plant damage (herbicidal activity), visually evaluated, PANDI): 100% | pest or weed control at 200 g/ha ([3]; Panicum dichotomiflorum, foliar, 0.2 kg/ha, read-out: Plant damage (herbicidal activity), visually evaluated, PANDI): 100% | plant injury at 25 g/ha ([4]; Zea mays, foliar, 0.025 kg/ha, read-out: Plant damage (herbicidal activity), visually evaluated, ZEAMX): 30% | plant injury at 100 g/ha ([4]; Zea mays, foliar, 0.1 kg/ha, read-out: Plant damage (herbicidal activity), visually evaluated, ZEAMX): 100% | plant injury at 200 g/ha ([4]; Zea mays, foliar, 0.2 kg/ha, read-out: Plant damage (herbicidal activity), visually evaluated, ZEAMX): 100% | pest or weed control at 25 g/ha ([5]; Arthraxon hispidus, foliar, 0.025 kg/ha, read-out: Plant damage (herbicidal activity), visually evaluated, ARTHIS): 70% | pest or weed control at 100 g/ha ([5]; Arthraxon hispidus, foliar, 0.1 kg/ha, read-out: Plant damage (herbicidal activity), visually evaluated, ARTHIS): 100% | pest or weed control at 200 g/ha ([5]; Arthraxon hispidus, foliar, 0.2 kg/ha, read-out: Plant damage (herbicidal activity), visually evaluated, ARTHIS): 100% | pest or weed control at 25 g/ha ([6]; Echinochloa crus-galli, foliar, 0.025 kg/ha, read-out: Plant damage (herbicidal activity), visually evaluated, ECHOG): 95% | pest or weed control at 100 g/ha ([6]; Echinochloa crus-galli, foliar, 0.1 kg/ha, read-out: Plant damage (herbicidal activity), visually evaluated, ECHOG): 100% | pest or weed control at 200 g/ha ([6]; Echinochloa crus-galli, foliar, 0.2 kg/ha, read-out: Plant damage (herbicidal activity), visually evaluated, ECHOG): 100% | pest or weed control at 25 g/ha ([7]; Sorghum bicolor, foliar, 0.025 kg/ha, read-out: Plant damage (herbicidal activity), visually evaluated, SORBI): 60% | pest or weed control at 100 g/ha ([7]; Sorghum bicolor, foliar, 0.1 kg/ha, read-out: Plant damage (herbicidal activity), visually evaluated, SORBI): 100% | pest or weed control at 200 g/ha ([7]; Sorghum bicolor, foliar, 0.2 kg/ha, read-out: Plant damage (herbicidal activity), visually evaluated, SORBI): 100% | Herbicidal effect (0~100), 20 days, Echinochloa oryzicola (Echinochloa oryzicola): 100% | Herbicidal effect (0~100), 20 days, Echinochloa crus-galli var. crus-galli [8]: 100% | Plant damage (herbicidal activity), visually evaluated, TRZAW ([9]; in vivo): 0% | Plant damage (herbicidal activity), visually evaluated, ORYSA ([10]; in vivo): 0% | Plant damage (herbicidal activity), visually evaluated, GLXMA ([11]; in vivo): 0% | Plant damage (herbicidal activity), visually evaluated, HORVU ([12]; in vivo): 0% | Plant damage (herbicidal activity), visually evaluated, Barnyard grass (Barnyard grass; 0.025 kg/ha): 70% | Plant damage (herbicidal activity), visually evaluated, Barnyard grass (Barnyard grass; 0.05 kg/ha): 90% | Plant damage (herbicidal activity), visually evaluated, Barnyard grass (Barnyard grass; 0.1 kg/ha): 100% | Plant damage (herbicidal activity), visually evaluated, Barnyard grass (Barnyard grass; 0.4 kg/ha): 100% | Harmful effect, 20 days (rice (Nampyung rice)): 0% | Harmful effect, 30 days (rice (Nampyung rice)): 0% | Plant damage (herbicidal activity), visually evaluated, Rice (Rice; in vivo): 0%

CCOC(=O)[C@@H](C)Oc1ccc(Oc2nc3ccc(Cl)cc3o2)cc1 [Phenoxaprop-P-ethyl, phenoxaprop-P-ethyl, reference compound]
Plant damage (herbicidal activity), visually evaluated, SETVIR ([1]; 0.025 kg/ha): 20% | Plant damage (herbicidal activity), visually evaluated, SETVIR ([1]; 0.1 kg/ha): 100% | Plant damage (herbicidal activity), visually evaluated, SETVIR ([1]; 0.2 kg/ha): 100% | Plant damage (herbicidal activity), visually evaluated, DIGSA ([2]; 0.025 kg/ha): 40% | Plant damage (herbicidal activity), visually evaluated, DIGSA ([2]; 0.1 kg/ha): 100% | Plant damage (herbicidal activity), visually evaluated, DIGSA ([2]; 0.2 kg/ha): 100% | Plant damage (herbicidal activity), visually evaluated, PANDI ([3]; 0.025 kg/ha): 30% | Plant damage (herbicidal activity), visually evaluated, PANDI ([3]; 0.1 kg/ha): 100% | Plant damage (herbicidal activity), visually evaluated, PANDI ([3]; 0.2 kg/ha): 100% | Plant damage (herbicidal activity), visually evaluated, ZEAMX ([4]; 0.025 kg/ha): 30% | Plant damage (herbicidal activity), visually evaluated, ZEAMX ([4]; 0.1 kg/ha): 100% | Plant damage (herbicidal activity), visually evaluated, ZEAMX ([4]; 0.2 kg/ha): 100% | Plant damage (herbicidal activity), visually evaluated, ARTHIS ([5]; 0.025 kg/ha): 30% | Plant damage (herbicidal activity), visually evaluated, ARTHIS ([5]; 0.1 kg/ha): 100% | Plant damage (herbicidal activity), visually evaluated, ARTHIS ([5]; 0.2 kg/ha): 100% | Plant damage (herbicidal activity), visually evaluated, ECHOG ([6]; 0.025 kg/ha): 30% | Plant damage (herbicidal activity), visually evaluated, ECHOG ([6]; 0.1 kg/ha): 100% | Plant damage (herbicidal activity), visually evaluated, ECHOG ([6]; 0.2 kg/ha): 100% | Plant damage (herbicidal activity), visually evaluated, SORBI ([7]; 0.025 kg/ha): 50% | Plant damage (herbicidal activity), visually evaluated, SORBI ([7]; 0.1 kg/ha): 100% | Plant damage (herbicidal activity), visually evaluated, SORBI ([7]; 0.2 kg/ha): 100% | Herbicidal effect (0~100), 20 days, Echinochloa oryzicola (Echinochloa oryzicola): 100% | Herbicidal effect (0~100), 20 days, Echinochloa crus-galli var. crus-galli [8]: 100% | Plant damage (herbicidal activity), visually evaluated, TRZAW ([9]; wheat, 0.025 kg/ha, foliage treatment): 0% | Plant damage (herbicidal activity), visually evaluated, TRZAW ([9]; wheat, 0.1 kg/ha, foliage treatment): 10% | Plant damage (herbicidal activity), visually evaluated, TRZAW ([9]; wheat, 0.2 kg/ha, foliage treatment): 10% | Plant damage (herbicidal activity), visually evaluated, ORYSA ([10]; rice, 0.025 kg/ha, foliage treatment): 0% | Plant damage (herbicidal activity), visually evaluated, ORYSA ([10]; rice, 0.1 kg/ha, foliage treatment): 0% | Plant damage (herbicidal activity), visually evaluated, ORYSA ([10]; rice, 0.2 kg/ha, foliage treatment): 0% | Plant damage (herbicidal activity), visually evaluated, GLXMA ([11]; soy bean, 0.025 kg/ha, foliage treatment): 0% | Plant damage (herbicidal activity), visually evaluated, GLXMA ([11]; soy bean, 0.1 kg/ha, foliage treatment): 0% | Plant damage (herbicidal activity), visually evaluated, GLXMA ([11]; soy bean, 0.2 kg/ha, foliage treatment): 0% | Plant damage (herbicidal activity), visually evaluated, HORVU ([12]; barley, 0.025 kg/ha, foliage treatment): 0% | Plant damage (herbicidal activity), visually evaluated, HORVU ([12]; barley, 0.1 kg/ha, foliage treatment): 20% | Plant damage (herbicidal activity), visually evaluated, HORVU ([12]; barley, 0.2 kg/ha, foliage treatment): 40% | Plant damage (herbicidal activity), visually evaluated, Barnyard grass (Barnyard grass; 0.025 kg/ha): 90% | Plant damage (herbicidal activity), visually evaluated, Barnyard grass (Barnyard grass; 0.05 kg/ha): 100% | Plant damage (herbicidal activity), visually evaluated, Barnyard grass (Barnyard grass; 0.1 kg/ha): 100% | Plant damage (herbicidal activity), visually evaluated, Barnyard grass (Barnyard grass; 0.4 kg/ha): 100% | Harmful effect, 20 days (rice (Nampyung rice)): 23% | Harmful effect, 30 days (rice (Nampyung rice)): 38% | Plant damage (herbicidal activity), visually evaluated, Rice (Rice; 4-leaf stage, 0.025 kg/ha): 20% | Plant damage (herbicidal activity), visually evaluated, Rice (Rice; 4-leaf stage, 0.05 kg/ha): 30% | Plant damage (herbicidal activity), visually evaluated, Rice (Rice; 4-leaf stage, 0.1 kg/ha): 70% | Plant damage (herbicidal activity), visually evaluated, Rice (Rice; 4-leaf stage, 0.4 kg/ha): 80%
